Molecular target: T1, PD-1/PD-L1 (Homo sapiens, UniProt Q9NZQ7)
T1 construct: purchased CisBio
Assay: PD1-PDL1 HTRF assay
Settings: PD-1/PD-L1 homogenous time-resolved fluorescence (HTRF) binding assay; Tag1-PDL1 5 nM, Tag2-PD1 50 nM
Outline: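 Compound (8 concentrations) was preincubated 15 min at room temperature with Tag1-PD-L1 and Tag2-PD-1, added as 5 nM and 50 nM solutions. Eu-labelled anti-Tag1 and XL665-labelled anti-Tag2 were then added for 1 h, and the 665/620 nm ratio (×10^4; excitation 320 nm) was fitted to the Hill equation for IC50.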

T1 sequence (Q9NZQ7 19-238 limits assumed): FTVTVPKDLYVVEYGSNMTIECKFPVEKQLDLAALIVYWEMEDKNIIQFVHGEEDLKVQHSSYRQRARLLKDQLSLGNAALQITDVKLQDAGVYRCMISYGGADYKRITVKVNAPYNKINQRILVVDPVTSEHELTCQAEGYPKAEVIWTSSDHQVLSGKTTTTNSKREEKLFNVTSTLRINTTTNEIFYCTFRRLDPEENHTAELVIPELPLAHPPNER

Structure (SMILES) | IC50
Cc1c(-c2ccc(CNC[C@@H]3CCC(=O)N3)cc2)cccc1-c1cccc(-c2ccn3c(-c4ccc(CNC[C@@H]5CCC(=O)N5)cc4)nnc3c2)c1C [Example 74, (S)-5-((((2′,2″-dimethyl-3″-(3-(4-(((((S)-5-oxopyrrolidin-2-yl)methyl)amino)methyl)phenyl)-[1,2,4]triazolo[4,3-a]pyridin-7-yl)-[1,1′:3′,1″-terphenyl]-4-yl)methyl)amino)methyl)pyrrolidin-2-one] | 10 to 100 nM
OCCCNCc1ccc(-c2cccc(-c3cccc(-c4ccn5nc(CNCCO)nc5c4)c3Cl)c2Cl)cc1 [Example 115, 3-(((21,2″-dichloro-3″-(2-(((2-hydroxyethyl)amino)methyl)-[1,2,4]triazolo[1,5-a]pyridin-7-yl)-[1,11:31,1″-terphenyl]-4-yl)methyl)amino)propan-1-ol] | ≤ 10 nM
Cc1c(-c2ccc(CNCCO)cc2)cccc1-c1cccc(-c2ccn3c(-c4ccc(CNCCO)cc4)nnc3c2)c1C [Example 75, 2-((4-(7-(4″-(((2-hydroxyethyl)amino)methyl)-2,2′-dimethyl-[1,1′:3′,1″-terphenyl]-3-yl)-[1,2,4]triazolo[4,3-α]pyridin-3-yl)benzyl)amino)ethan-1-ol] | 10 to 100 nM
Cc1c(-c2ccc(CNCCO)cc2)cccc1-c1cccc(-c2ccn3c(-c4ccc(CN5CC[C@@H](C(=O)O)C5)cc4)nnc3c2)c1C [Example 65, (R)-1-(4-(7-(4″-(((2-hydroxyethyl)amino)methyl)-2,2′-dimethyl-[1,1′:3′,1″-terphenyl]-3-yl)-[1,2,4]triazolo[4,3-α]pyridin-3-yl)benzyl)pyrrolidine-3-carboxylic acid] | 10 to 100 nM
Cc1c(-c2ccccc2)cccc1-c1ccn2c(-c3ccc(CNCC(=O)O)cc3)cnc2c1 [Example 12, (4-(7-(2-methyl-[1,1′-biphenyl]-3-yl)imidazo[1,2-a]pyridin-3-yl)benzyl)glycine] | 100 to 1000 nM
O=C1CC[C@@H](CNCc2ccc(-c3cccc(-c4cccc(-c5ccn6nc(CNC[C@@H]7CCC(=O)N7)nc6c5)c4Cl)c3Cl)cc2)N1 [Example 105, (S)-5-((((21,2″-dichloro-3″-(2-(((((S)-5-oxopyrrolidin-2-yl)methyl)amino)methyl)-[1,2,4]triazolo[1,5-α]pyridin-7-yl)-[1,1′:3′,1″-terphenyl]-4-yl)methyl)amino)methyl)pyrrolidin-2-one] | ≤ 10 nM
Cc1c(-c2ccccc2)cccc1-c1ccn2c(-c3ccc(CN4CCC[C@@H]4CO)cc3)cnc2c1 [Example 23, (R)-(1-(4-(7-(2-methyl-[1,1′-biphenyl]-3-yl)imidazo[1,2-a]pyridin-3-yl)benzyl)pyrrolidin-2-yl)methanol] | 100 to 1000 nM
COc1cc(-c2cccc(-c3cccc(-c4ccn5c(-c6ccc(CNCCO)cc6)nnc5c4)c3C)c2C)ccc1CNCCO [Example 78, 2-((4-(7-(4″-(((2-hydroxyethyl)amino)methyl)-3″-methoxy-2,2′-dimethyl-[1,1′:3′,1″-terphenyl]-3-yl)-[1,2,4]triazolo[4,3-α]pyridin-3-yl)benzyl)amino)ethan-1-ol] | ≤ 10 nM
Cc1c(-c2ccn3c(-c4ccc(CN5CCC[C@@H]5C(=O)O)cc4)nnc3c2)cccc1-c1cccc(-c2ccn3c(-c4ccc(CN5CCC[C@@H]5C(=O)O)cc4)nnc3c2)c1C [Example 73, (2′R)-((((2,2′-dimethyl-[1,1′-biphenyl]-3,3′-diyl)bis ([1,2,4]triazolo[4,3-ci]pyridine-7,3-diyl))bis(4,1-phenylene))bis(methylene))di-D-proline] | 10 to 100 nM
Cc1c(-c2ccc3c(c2)OCCO3)cccc1-c1ccn2c(-c3ccc(CN4CCOCC4C(=O)O)cc3)cnc2c1 (single isomer, unassigned) [Example 34, 4-(4-(7-(3-(2,3-dihydrobenzo[b][1,4]dioxin-6-yl)-2-methylphenyl)imidazo[1,2-a]pyridin-3-yl)benzyl)morpholine-3-carboxylic acid] | 100 to 1000 nM
Cc1c(-c2ccccc2)cccc1-c1ccn2c(-c3ccc(CN4CCC[C@H]4C(=O)O)cc3)cnc2c1 [Example 10, (4-(7-(2-methyl-[1,1′-biphenyl]-3-yl)imidazo[1,2-a]pyridin-3-yl)benzyl)-L-proline] | 100 to 1000 nM
Cc1c(-c2ccc3c(c2)OCCO3)cccc1-c1ccn2c(-c3ccc(CNCCC(=O)O)cc3)nnc2c1 [Example 61, 3-((4-(7-(3-(2,3-dihydrobenzo[b][1,4]dioxin-6-yl)-2-methylphenyl)-[1,2,4]triazolo[4,3-a]pyridin-3-yl)benzyl)amino)propanoic acid] | 100 to 1000 nM
Cc1c(-c2ccccc2)cccc1-c1ccn2c(-c3ccc(CNC(C)(C)CO)cc3)cnc2c1 [Example 17, 2-methyl-2-((4-(7-(2-methyl-[1,1′-biphenyl]-3-yl)imidazo[1,2-a]pyridin-3-yl)benzyl)amino)propan-1-ol] | 100 to 1000 nM
Cc1c(-c2ccccc2)cccc1-c1ccn2c(-c3ccc(CNCCCO)cc3)cnc2c1 [Example 8, 3-((4-(7-(2-methyl-[1,1′-biphenyl]-3-yl)imidazo[1,2-a]pyridin-3-yl)benzyl)amino)propan-1-ol] | 100 to 1000 nM
Cc1c(-c2ccccc2)cccc1-c1ccn2c(-c3ccc(CNCC(O)CC(=O)O)cc3)cnc2c1 (stereo not shown) [Example 14, 3-hydroxy-4-((4-(7-(2-methyl-[1,1′-biphenyl]-3-yl)imidazo[1,2-a]pyridin-3-yl)benzyl)amino) butanoic acid] | 100 to 1000 nM
Cc1c(-c2ccccc2)cccc1-c1ccn2c(-c3ccc(CNCCCO)cc3)nnc2c1 [Example 15, 3-((4-(7-(2-methyl-[1,1′-biphenyl]-3-yl)-[1,2,4]triazolo[4,3-a]pyridin-3-yl)benzyl)amino)propan-1-ol] | 100 to 1000 nM
Cc1c(-c2ccccc2)cccc1-c1ccn2c(-c3ccc(CN4CC(C(=O)O)C4)cc3)cnc2c1 [Example 7, 1-(4-(7-(2-methyl-[1,1′-biphenyl]-3-yl)imidazo[1,2-a]pyridin-3-yl)benzyl)azetidine-3-carboxylic acid] | 100 to 1000 nM
CC(C)(CO)NCc1ccc(-c2cccc(-c3cccc(-c4ccn5nc(CNC(C)(C)CO)nc5c4)c3Cl)c2Cl)cc1 [Example 106, 2-(((21,2″-dichloro-3″-(2-(((1-hydroxy-2-methylpropan-2-yl)amino)methyl)-[1,2,4]triazolo[1,5-a]pyridin-7-yl)-[1,1′:3′,1″-terphenyl]-4-yl)methyl)amino)-2-methylpropan-1-ol] | ≤ 10 nM
Cc1c(-c2ccccc2)cccc1-c1ccn2c(-n3ccc(C(=O)NCCO)n3)cnc2c1 [Example 44, N-(2-hydroxyethyl)-1-(7-(2-methyl-[1,1′-biphenyl]-3-yl)imidazo[1,2-a]pyridin-3-yl)-1H-pyrazole-3-carboxamide] | 100 to 1000 nM
COCCNCc1ccc(-c2nnc3cc(-c4cccc(-c5cccc(NC(=O)c6ccc(CNCCO)cn6)c5C)c4C)ccn23)cc1 [Example 72, 5-(((2-hydroxyethyl)amino)methyl)-N-(3′-(3-(4-(((2-methoxyethyl)amino)methyl)phenyl)-[1,2,4]triazolo[4,3-α]pyridin-7-yl)-2,2′-dimethyl-[1,1′-biphenyl]-3-yl)picolinamide] | ≤ 10 nM
Cc1c(-c2ccccc2)cccc1-c1ccn2c(-c3ccc(CN4CCOCC4C(=O)O)cc3)cnc2c1 (stereo not shown) [Example 6, 4-(4-(7-(2-methyl-[1,1′-biphenyl]-3-yl)imidazo[1,2-a]pyridin-3-yl)benzyl)morpholine-3-carboxylic acid] | 100 to 1000 nM
Cc1c(-c2ccc3c(c2)OCCO3)cccc1-c1ccn2c(-c3ccc(CN4CCC[C@H]4C(=O)O)cc3)nnc2c1 [Example 57, (4-(7-(3-(2,3-dihydrobenzo[b][1,4]dioxin-6-yl)-2-methylphenyl)-[1,2,4]triazolo[4,3-a]pyridin-3-yl)benzyl)-L-proline] | 10 to 100 nM
Cc1c(NC(=O)c2ccc(CNCCO)cn2)cccc1-c1cccc(-c2ccn3c(-c4ccc(CNCCO)cc4)nnc3c2)c1C [Example 70, 5-(((2-hydroxyethyl)amino)methyl)-N-(3′-(3-(4-(((2-hydroxyethyl)amino)methyl)phenyl)-[1,2,4]triazolo[4,3-a]pyridin-7-yl)-2,2′-dimethyl-[1,1′-biphenyl]-3-yl)picolinamide] | ≤ 10 nM
OCCNCc1nc2cc(-c3cccc(-c4cccc(-c5ccc(CN6CCC[C@@H]6CO)cc5)c4Cl)c3Cl)ccn2n1 [Example 114, (R)-2-(((7-(2,2′-dichloro-4″-((2-(hydroxymethyl)pyrrolidin-1-yl)methyl)-[1,11:3′,1″-terphenyl]-3-yl)-[1,2,4]triazolo [1,5-a]pyridin-2-yl)methyl)amino)ethan-1-ol] | ≤ 10 nM
Cc1c(-c2ccccc2)cccc1-c1ccn2c(-c3ccc(CNCC(O)CC(=O)O)cc3)nnc2c1 (stereo not shown) [Example 55, 3-hydroxy-4-((4-(7-(2-methyl-[1,1′-biphenyl]-3-yl)-[1,2,4]triazolo[4,3-a]pyridin-3-yl)benzyl)amino)butanoic acid] | 100 to 1000 nM
Cc1c(-c2ccc3c(c2)OCCO3)cccc1-c1ccn2c(-c3ccc(CN4CCC[C@@H]4C(=O)O)cc3)cnc2c1 [Example 27, (4-(7-(3-(2,3-dihydrobenzo[b][1,4]dioxin-6-yl)-2-methylphenyl)imidazo[1,2-a]pyridin-3-yl)benzyl)-D-proline] | 100 to 1000 nM
Cc1c(-c2ccccc2)cccc1-c1ccn2c(-c3ccc(CN[C@H](C(=O)O)C(C)C)cc3)cnc2c1 [Example 9, (4-(7-(2-methyl-[1,1′-biphenyl]-3-yl)imidazo[1,2-a]pyridin-3-yl)benzyl)valine] | 100 to 1000 nM
COc1cc(-c2cnc3cc(-c4cccc(-c5ccccc5)c4C)ccn23)cc(OC)c1CN1CCC[C@H]1C(=O)O [Example 21, (2,6-dimethoxy-4-(7-(2-methyl-[1,1′-biphenyl]-3-yl)imidazo[1,2-a]pyridin-3-yl)benzyl)proline] | 100 to 1000 nM

Reference: patent publication US20260265248A1, “NOVEL PD-L1 INHIBITORS” (AFFIRMA BIOTECH S. L., priority 2023, published 2026)
